Patent US10947252B2, “Inhibitors of KEAP1-Nrf2 protein-protein interaction” (Janssen Pharmaceutica NV, priority 2018, dated 2021)

Assays:
[1] = test system: Glo-Response ARE-luc2P HEK293 cell line; test: ARE luciferase reporter cell-based assay; conditions: Homo sapiens, HEK293, 24 h, average of results obtained;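 further: luciferase signal tracks Nrf2 activation of the ARE once compounds disrupt KEAP1-Nrf2 binding, read with One-Glo reagent, DMSO serving as low control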
[2] = biological target: Kelch domain of human KEAP1 (321-624 aa) (Homo sapiens (Human), UniProt Q14145); test: KEAP1 KELCH ThermoFluor binding assay; conditions: KEAP Kelch […], 1,8-ANS, pH 7.0, average of results obtained, read-out: Tf Kd;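 further: Ligand-induced melting temperature shift of E. coli-expressed KEAP1 Kelch protein, Kd estimated from concentration-response curves of ΔTm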
Chain of Kelch domain of human KEAP1 (321-624 aa) (Q14145 321-624): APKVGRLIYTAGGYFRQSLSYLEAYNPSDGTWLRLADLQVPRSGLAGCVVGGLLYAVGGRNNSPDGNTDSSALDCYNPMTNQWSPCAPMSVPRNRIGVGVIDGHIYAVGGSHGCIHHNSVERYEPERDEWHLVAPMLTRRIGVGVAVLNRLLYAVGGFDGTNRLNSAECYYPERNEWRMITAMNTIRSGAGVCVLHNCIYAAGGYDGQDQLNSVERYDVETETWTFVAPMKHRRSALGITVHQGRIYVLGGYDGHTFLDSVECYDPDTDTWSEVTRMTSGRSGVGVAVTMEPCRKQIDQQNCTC

Compound	EC50 [1]	Kd [2]
Cc1cc2cc([C@H](CC(=O)O)c3ccc(C)c(CN4C[C@H]5CCCCN5c5ncccc5S4(=O)=O)c3)n(C)c2nn1 (single isomer, unassigned) [Example 445, (*R)-3-(3,7-Dimethyl-7H-pyrrolo[2,3-c]pyridazin-6-yl)-3-(3-(((*R)-5,5-dioxido-7,7a,8,9,10,11-hexahydro-6H-dipyrido[2,1-d:2′,3′-f][1,2,5]thiadiazepin-6-yl)methyl)-4-methylphenyl)propanoic Acid]	0.716 µM	< 0.001 µM
Cc1ccc([C@@H](CC(=O)O)c2ccn3c(C(F)F)nnc3c2C)cc1CN1C[C@@H]2CCCCN2c2ncccc2S1(=O)=O (single isomer, unassigned) [Example 448, (*R)-3-(3-(Difluoromethyl)-8-methyl-[1,2,4]triazolo[4,3-a]pyridin-7-yl)-3-(3-(((*S)-5,5-dioxido-7,7a,8,9,10,11-hexahydro-6H-dipyrido[2,1-d:2′,3′-f][1,2,5]thiadiazepin-6-yl)methyl)-4-methylphenyl)propanoic Acid]	0.218 µM	< 0.001 µM
Cc1ccc([C@H](CC(=O)O)c2ccn3c(C(F)F)nnc3c2C)cc1CN1C[C@H]2CCCN2c2ncccc2S1(=O)=O (single isomer, unassigned) [Example 450, (*S)-3-(3-(Difluoromethyl)-8-methyl-[1,2,4]triazolo[4,3-a]pyridin-7-yl)-3-(3-(((R)-5,5-dioxido-7a,8,9,10-tetrahydropyrido[2,3-f]pyrrolo[2,1-d][1,2,5]thiadiazepin-6(7H)-yl)methyl)-4-methylphenyl)propanoic Acid]	0.0251 µM	< 0.001 µM
Cc1ccc([C@@H](CC(=O)O)c2ccn3c(C(F)F)nnc3c2C)cc1CN1C[C@H]2CCCN2c2ncccc2S1(=O)=O (single isomer, unassigned) [Example 451, (*R)-3-(3-(Difluoromethyl)-8-methyl-[1,2,4]triazolo[4,3-a]pyridin-7-yl)-3-(3-(((R)-5,5-dioxido-7a,8,9,10-tetrahydropyrido[2,3-f]pyrrolo[2,1-d][1,2,5]thiadiazepin-6(7H)-yl)methyl)-4-methylphenyl)propanoic Acid]	0.265 µM	< 0.001 µM
Cc1ccc([C@H](CC(=O)O)c2ccn3c(C(F)(F)F)nnc3c2C)cc1CN1C[C@@H]2CCC(F)(F)CN2c2ncccc2S1(=O)=O (single isomer, unassigned) [Example 453, (*S)-3-(3-(((*S)-10,10-Difluoro-5,5-dioxido-7,7a,8,9,10,11-hexahydro-6H-dipyrido[2,1-d:2′,3′-f][1,2,5]thiadiazepin-6-yl)methyl)-4-methylphenyl)-3-(8-methyl-3-(trifluoromethyl)-[1,2,4]triazolo[4,3-a]pyridin-7-yl)propanoic Acid]	0.162 µM	< 0.001 µM
Cc1ccc([C@@H](CC(=O)O)c2ccn3c(C(F)(F)F)nnc3c2C)cc1CN1C[C@@H]2CCC(F)(F)CN2c2ncccc2S1(=O)=O (single isomer, unassigned) [Example 455, (*R)-3-(3-(((*S)-10,10-Difluoro-5,5-dioxido-7,7a,8,9,10,11-hexahydro-6H-dipyrido[2,1-d:2′,3′-f][1,2,5]thiadiazepin-6-yl)methyl)-4-methylphenyl)-3-(8-methyl-3-(trifluoromethyl)-[1,2,4]triazolo[4,3-a]pyridin-7-yl)propanoic Acid]	0.798 µM	< 0.001 µM
Cc1ccc([C@@H](CC(=O)O)c2ccn3c(C(F)(F)F)nnc3c2C)cc1CN1C[C@H]2CCC(F)(F)CN2c2ncccc2S1(=O)=O (single isomer, unassigned) [Example 456, (*R)-3-(3-(((*R)-10,10-Difluoro-5,5-dioxido-7,7a,8,9,10,11-hexahydro-6H-dipyrido[2,1-d:2′,3′-f][1,2,5]thiadiazepin-6-yl)methyl)-4-methylphenyl)-3-(8-methyl-3-(trifluoromethyl)-[1,2,4]triazolo[4,3-a]pyridin-7-yl)propanoic Acid]	0.414 µM	< 0.001 µM
